The values that follow come from ChEMBL document CHEMBL5150000, “Insights on Dengue and Zika NS5 RNA-dependent RNA polymerase (RdRp) inhibitors” (Eur J Med Chem, 2021).

A word on the IC50: it is the concentration needed to halve the response being measured. As a reminder, the CC50 is the concentration that lowers cell viability or growth by half. What is called inhibition is the drop in the measured response relative to a control, in per cent. One may read the EC50 as the concentration at which the effect is half-maximal. The Kd is the equilibrium constant for the complex coming apart.

The test system of data set [1] is Dengue virus. Briefly: Antiviral activity against DENV NS5/RNA-dependent RNA polymerase. In kind it is functional, organism-based.
A short description of data set [2]: Cytotoxicity against African green monkey Vero cells. In kind it is toxicity, cell-based. The conditions noted are these: chlorocebus sabaeus.
A further data set concerns the target NS5 (Zika virus) (UniProt A0A143MHK7). Briefly: Inhibition of Zika virus RNA-dependent RNA polymerase relative to control. The conditions noted are these: concentration not given here.
In data set [3] the target is T1, Nonstructural protein 5 (Dengue virus, UniProt V5TFZ2). Briefly: Inhibition of DENV NS5/RNA-dependent RNA polymerase.
The nature of data set [4]: Cytotoxicity against hamster BHK-21 cells. In kind it is toxicity, cell-based, Mesocricetus auratus.
Data set [5] is described as follows: Inhibition of DENV RNA-dependent RNA polymerase in hamster BHK-21 cells. In kind it is cell-based, Dengue virus.
Data set [6] has as its target Nonstructural protein 5 (Dengue virus) (UniProt V5TFZ2). The experiment in a line: Binding affinity to DENV-3 NS5 assessed as gibbs free energy change. To be noted: dengue virus type 3.
In another data set the test system is Zika virus. Briefly: Antiviral activity against Zika virus infected in African green monkey Vero cells assessed as reduction in viral replication incubated for 24 hrs. It counts as functional, organism-based.
Data set [7] has as its system dengue virus type 2. Briefly: Antiviral activity against DENV-2 RNA-dependent RNA polymerase infected in human Huh-7 cells assessed as reduction in viral replication by RT-PCR analysis. In kind it is functional, organism-based.
A short description of data set [8]: Inhibition of DENV RNA-dependent RNA polymerase activity. Further details: species or system Dengue virus.
Data set [9] deals with Dengue virus. Briefly: Inhibition of DENV RNA-dependent RNA polymerase relative to control. To be noted: concentration not given here.
A short description of data set [10]: Inhibition of DENV RNA-dependent RNA polymerase. More on the design: species or system dengue virus type 1.
In data set [11] the test system is dengue virus type 2. Briefly: Antiviral activity against DENV-2 RNA-dependent RNA polymerase infected in African green monkey Vero cells assessed as reduction in viral replication incubated for 2 days by qRT-PCR analysis. In kind it is functional, organism-based. The conditions noted are these: 48 h.
The test system of a further data set is dengue virus type 1. The experiment in a line: Antiviral activity against DENV-1 RNA-dependent RNA polymerase infected in African green monkey Vero cells assessed as reduction in viral replication incubated for 2 days by qRT-PCR analysis. In kind it is functional, organism-based. To be noted: 48 h. In general terms: In qPCR the cycle at which signal appears reflects the starting amount.

Another data set concerns dengue virus type 3. Briefly: Antiviral activity against DENV-3 RNA-dependent RNA polymerase infected in African green monkey Vero cells assessed as reduction in viral replication incubated for 2 days by qRT-PCR analysis. It counts as functional, organism-based. To be noted: 48 h.
The subject of data set [12] is dengue virus type 4. Briefly: Antiviral activity against DENV-4 RNA-dependent RNA polymerase infected in African green monkey Vero cells assessed as reduction in viral replication incubated for 2 days by qRT-PCR analysis. It counts as functional, organism-based. To be noted: 48 h.
In data set [13] the target is T1, Nonstructural protein 5. Briefly: Inhibition of full length His-tagged DENV-2 NS5 incubated for 1 hr. More on the design: species or system dengue virus type 2.
Data set [14] is described as follows: Inhibition od DENV-2 RNA-dependent RNA polymerase. Further details: species or system dengue virus type 2.
Data set [15] addresses T1, Nonstructural protein 5. The experiment in a line: Inhibition of DENV-2 NS5. More on the design: species or system dengue virus type 2.
Data set [16] deals with T1, Nonstructural protein 5. Briefly: Inhibition of DENV-4 NS5. More on the design: species or system dengue virus type 4.
A further data set has as its system Hepacivirus hominis. Briefly: Inhibition of C-terminal his6-tagged HCV NS5/RNA-dependent RNA polymerase expressed in Escherichia coli at 100 uM incubated for 2 hrs by Microbeta counter analysis.
In data set [17] the target is T2, DNA polymerase alpha catalytic subunit (Homo sapiens) (UniProt P09884).
T2 sequence (whole entry): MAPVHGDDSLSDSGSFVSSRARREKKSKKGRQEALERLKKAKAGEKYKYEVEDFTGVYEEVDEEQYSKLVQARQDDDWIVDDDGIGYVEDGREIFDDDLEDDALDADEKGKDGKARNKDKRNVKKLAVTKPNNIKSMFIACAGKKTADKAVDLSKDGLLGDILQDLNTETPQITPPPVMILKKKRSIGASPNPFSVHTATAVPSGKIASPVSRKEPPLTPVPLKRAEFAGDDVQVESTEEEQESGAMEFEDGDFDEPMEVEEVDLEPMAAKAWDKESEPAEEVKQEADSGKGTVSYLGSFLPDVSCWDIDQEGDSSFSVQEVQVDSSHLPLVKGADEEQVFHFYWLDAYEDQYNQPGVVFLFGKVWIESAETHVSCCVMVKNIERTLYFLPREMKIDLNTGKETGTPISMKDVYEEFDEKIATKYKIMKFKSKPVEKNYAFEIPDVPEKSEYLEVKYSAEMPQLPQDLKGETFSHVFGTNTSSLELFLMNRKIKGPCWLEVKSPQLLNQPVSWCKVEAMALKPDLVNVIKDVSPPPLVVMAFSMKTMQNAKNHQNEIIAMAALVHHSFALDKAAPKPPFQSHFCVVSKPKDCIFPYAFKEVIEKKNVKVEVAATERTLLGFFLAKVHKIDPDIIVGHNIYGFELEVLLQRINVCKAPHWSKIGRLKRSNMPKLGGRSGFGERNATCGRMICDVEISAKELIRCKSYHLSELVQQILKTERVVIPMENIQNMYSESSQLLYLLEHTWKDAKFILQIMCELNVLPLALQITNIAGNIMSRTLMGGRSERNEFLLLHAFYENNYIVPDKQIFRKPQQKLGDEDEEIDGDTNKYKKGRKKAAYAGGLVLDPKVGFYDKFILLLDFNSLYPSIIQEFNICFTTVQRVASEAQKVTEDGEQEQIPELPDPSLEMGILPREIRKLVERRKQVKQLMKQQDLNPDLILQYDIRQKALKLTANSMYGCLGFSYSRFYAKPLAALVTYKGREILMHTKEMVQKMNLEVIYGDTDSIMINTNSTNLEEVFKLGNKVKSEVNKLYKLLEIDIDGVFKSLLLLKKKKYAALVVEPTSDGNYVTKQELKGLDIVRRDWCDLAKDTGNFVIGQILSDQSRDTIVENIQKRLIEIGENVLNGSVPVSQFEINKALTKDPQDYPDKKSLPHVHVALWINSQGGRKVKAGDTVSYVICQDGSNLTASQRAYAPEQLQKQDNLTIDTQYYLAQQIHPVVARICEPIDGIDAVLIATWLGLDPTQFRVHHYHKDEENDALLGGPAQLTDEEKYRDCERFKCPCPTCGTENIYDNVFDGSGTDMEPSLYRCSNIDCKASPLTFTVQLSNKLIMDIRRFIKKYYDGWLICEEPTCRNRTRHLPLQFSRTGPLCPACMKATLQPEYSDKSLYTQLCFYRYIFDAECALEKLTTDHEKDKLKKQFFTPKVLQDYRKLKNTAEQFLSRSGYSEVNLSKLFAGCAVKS
The experiment in a line: Inhibition of human DNA polymerase alpha at 100 uM incubated for 60 mins by Microbeta counter analysis.

In a further data set the target is NS5 (Zika virus, UniProt A0A143MHK7). Briefly: Inhibition of Zika virus RNA-dependent RNA polymerase activity.
Sequence of NS5 (A0A143MHK7 whole entry): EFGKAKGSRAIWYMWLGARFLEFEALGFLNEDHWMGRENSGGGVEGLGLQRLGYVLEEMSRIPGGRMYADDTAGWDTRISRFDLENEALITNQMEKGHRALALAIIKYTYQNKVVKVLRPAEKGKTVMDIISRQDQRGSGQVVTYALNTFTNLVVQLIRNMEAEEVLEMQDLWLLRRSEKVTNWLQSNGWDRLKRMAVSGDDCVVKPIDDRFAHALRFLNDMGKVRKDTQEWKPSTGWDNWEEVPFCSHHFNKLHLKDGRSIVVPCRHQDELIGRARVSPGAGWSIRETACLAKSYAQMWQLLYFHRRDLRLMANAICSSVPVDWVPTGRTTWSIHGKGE
Data set [18] is described as follows: Binding affinity to DENV-3 RNA-dependent RNA polymerase assessed as dissociation constant incubated for 40 sec by surface plasmon resonance analysis. More on the design: species or system dengue virus type 3. Background: SPR reads the build-up and loss of mass on a sensor chip optically.
The subject of data set [19] is dengue virus type 4. The experiment in a line: Binding affinity to DENV-4 RNA-dependent RNA polymerase assessed as change in enthalpy by ITC analysis. For orientation: In ITC the heat of successive injections is recorded.
Data set [20] is described as follows: Inhibition of DENV-3 RNA-dependent RNA polymerase. More on the design: species or system dengue virus type 3.

Sequence of NS5 (Zika virus) (A0A143MHK7 as listed by the source): as the sequence (A0A143MHK7 whole entry) above

In the data set with Dengue virus [1], `CCCC/C=C/C#CCCCCCCCC(=O)O` yielded an IC50 of 2700 nM. Further, the CC50 in data set [2] turned out to be 30 µM.

`CO[C@@H]1[C@H](O)[C@@H](COP(=O)(O)OP(=O)(O)OP(=O)(O)O)O[C@H]1n1ccc(N)nc1=O`: on NS5 (Zika virus), the inhibition is 72.2%.

Molecule `COc1cc(O)c2c(=O)cc(-c3ccc(O)cc3)oc2c1-c1cc(-c2cc(=O)c3c(O)cc(O)cc3o2)ccc1O` [SOTETSUFLAVONE] displayed an IC50 against Nonstructural protein 5 [3] of 160 nM.

`C#Cc1c(C(N)=O)ncn1[C@@H]1O[C@H](CO)[C@@H](O)[C@H]1O` gave a CC50 in data set [4] of 1240 nM. The same molecule registered an IC50 in data set [5] of 0.27 µM.

In the case of `O=C1N=C(SCC(=O)N2CCN(c3ccc(F)cc3)CC2)N=C2CCN(Cc3ccccc3)C[C@H]12`, the deltaG in [6] was -6.43 kcal/mol.

As to `O=C(N[C@@H](Cc1ccc(O)cc1)C(=O)O)c1cc(-c2ccccc2)c(=O)n2c1sc1ccc(C3CCCCCC3)cc12`, the EC50 stood at 1600 nM in the data set with Zika virus and 3.7 µM in the data set with dengue virus type 2 [7].

The molecule `C[C@@]1(F)[C@H](O)[C@@H](COP(=O)(O)OP(=O)(O)OP(=O)(O)O)O[C@H]1n1ccc(N)nc1=O` [PSI-6130-TP] had an IC50 in data set [8] of 1600 nM. Besides, the inhibition against NS5 (Zika virus) turned out to be 67.4%; in the data set on Dengue virus [9], 85%.

As to `Nc1cc(C(F)(F)F)ccc1NC(=O)Nc1cccc(S(=O)(=O)Nc2ccc(C(=O)O)cc2)c1`, the IC50 in data set [10] is 91 µM.

Take `O=C(O)/C=C/C#CCCCCCCCC(=O)O`: the IC50 in the data set with Dengue virus [1] amounted to 2500 nM. The CC50 in data set [2] is > 420 µM.

For the molecule `C[C@@]1(O)[C@H](O)[C@@H](CO)O[C@H]1n1cc(F)c2c(N)ncnc21`, the EC50 in the data set with dengue virus type 2 [11] is 460 nM; in the data set on dengue virus type 1, 960 nM; in the data set with dengue virus type 3, 850 nM; in the data set on dengue virus type 4 [12], 870 nM.

In the case of `O=C1N/C(=N\c2nnc(-c3cccc(F)c3)s2)S/C1=C\c1cccc(F)c1`, the IC50 against Nonstructural protein 5 [13] came out at 2300 nM.

In the data set with Dengue virus [1], `CCCCC#CC#CC#CCCCCCCCC(=O)O` showed an IC50 of 2700 nM. The molecule also had a cytotoxic concentration (CC50) in [2] of 30 µM.

In the case of `O=C(O)c1ccccc1NS(=O)(=O)c1cccc(-c2cnn(Cc3ccccc3)c2)c1`, the IC50 in [14] amounted to 700 nM; on Nonstructural protein 5 [15], 4.6 µM; against Nonstructural protein 5 [16], 5.2 µM. Moreover, the inhibition came out at 23% in the data set on Hepacivirus hominis and 32% in data set [17].

`C[C@@]1(O)[C@H](O)[C@@H](COP(=O)(O)OP(=O)(O)OP(=O)(O)O)O[C@H]1n1cnc2c(N)ncnc21`: 5.26 µM corresponded to half-maximal inhibition at NS5 (IC50).

In the case of `COc1ccc(CC(=O)O)cc1-c1ccsc1`, the Kd in data set [18] amounted to 67 µM. For the same molecule, the deltaH in the data set with dengue virus type 4 [19] was -7.7 kcal/mol. The IC50 at Nonstructural protein 5 [16] came to 210 µM; in data set [20], 205 nM.

The molecule `CCCC/C=C/C#CC#CCCCCCCCC(=O)O` [EXOCARPIC ACID] returned an IC50 in the data set on Dengue virus [1] of 2200 nM. The CC50 in data set [2] came out at 23 µM.

Consider `C#Cc1c(C#N)ncn1[C@@H]1S[C@H](CO)[C@@H](O)[C@H]1O`, for which the CC50 in data set [4] was > 50000 nM. Besides, the IC50 in data set [5] was 6.57 µM.
